{"source": "patent US20210000907A1", "about": "“MICRONEEDLE-MEDIATED DELIVERY OF TOLEROGENIC IMMUNOTHERAPEUTICS” (University of Maryland, College Park, priority 2017, published 2021)", "assay_type_in_all_cases": "in vivo", "key": {"[1]": {"tested_on": "Experimental Autoimmune Encephalomyelitis (EAE)", "assay": "Experimental Autoimmune Encephalomyelitis (EAE), progressive mouse model of MOG-driven inflammation", "procedure": "(§1) We confirmed the activity and dose-dependence of traditional GA regimens using daily GA injections (i.p.) at 0.2 or 2.0 mg/day beginning at disease onset in EAE (arrows; N=10/group). As discussed above, EAE is a progressive mouse model of MOG-driven inflammation that results in severe paralysis over several weeks; higher clinical scores indicate more severe disease (FIG. 3, panel A). Next we formulated GA-MNs (with sucrose stabilizer) such that a single MN patch contained 0.2 mg—confirmed by dissolution and fluorimetry—to match the ineffective injected GA dose in FIG. 3 panel A. The actual amount of GA delivered from MNs is likely less than the total GA loading due to accumulation on the backing. Mice were then treated at the ear on days 5, 10, 15, and 20 with GA-MNs or control MNs lacking GA (“Sucrose MN”). […] To analyze this approach in another inflammation model driven by a different myelin peptide—PLP, SJL/J mice were induced with relapsing-remitting EAE (RR-EAE) then treated on days 6, 9, and 12 (N=15/group) using equivalent doses 0.2 mg/treatment (tx) group of GA by MN or soluble i.p. injection."}, "[2]": {"tested_on": "relapsing-remitting EAE (RR-EAE)", "assay": "Relapsing-remitting EAE (RR-EAE) driven by PLP in SJL/J mice", "details": "0.2 mg/treatment on days 6, 9, 12, by MN or soluble i.p. injection; for RR-EAE mean score: measured at the last treatment day", "procedure": "as §1"}, "[3]": {"tested_on": "lymphocytes, TREG, CD45+CD4+ T cells", "assay": "Flow cytometry of cervical LNs, spleen and spinal cord in RR-EAE mice", "details": "Day 10 and Day 12, relative to untreated mice with RR-EAE", "procedure": "To analyze this, we analyzed whether GA-MN could increase TREG, and, that because of the decreased clinical scores in FIG. 3, these effects might be evident in cervical LNs. Using analogous regimens to FIG. 3 panel D (RR-EAE), mice were euthanized at Day 10 and Day 12, then cervical LNs and spleen were assessed by flow cytometry. Relative to untreated mice with RR-EAE, GA-MN increased both the number of lymphocytes (FIG. 4 panel A) and the number of TREG (FIG. 4 panel B); these effects were not observed in mice treated with soluble GA. […] At day 12, we assessed the number of lymphocytes and activated CD4^+ T cells, as indicated by staining for CD45^+/CD4^+ cells. Though the group sizes (N=5) were insufficient for statistical significance, we observed a trend that GA-MN decreased the number of lymphocytes the spinal cord (FIG. 5 panel A), as well as the number of infiltrating CD45^+CD4^+ cells (FIG. 5 panels B and C). The data in these Examples indicate GA-MNs deliver GA through the skin of mice at doses that provide efficacy in EAE and RR-EAE."}}}
{"substance": "glatiramer acetate [GA]", "values": [{"measurement": "EAE clinical score, effect of injected GA", "setting": "[1]; daily GA injections i.p. 0.2 mg/day beginning at disease onset", "value": "ineffective"}, {"measurement": "EAE clinical score, dose dependence of daily GA dosing", "setting": "[1]; daily GA injections i.p. at 0.2 or 2.0 mg/day beginning at disease onset", "value": "dose-dependent effects"}, {"measurement": "RR-EAE disease progression", "setting": "[2]; listed as injectable GA", "value": "does not"}, {"measurement": "RR-EAE disease progression", "setting": "[2]; listed as soluble GA", "value": "no effect"}, {"measurement": "RR-EAE mean score", "setting": "[2]; listed as injectable GA", "value": "does not"}, {"measurement": "RR-EAE mean score", "setting": "[2]; listed as soluble GA", "value": "no effect"}, {"measurement": "Number of TREG in cervical LNs", "setting": "[3]", "value": "not observed"}, {"measurement": "Number of lymphocytes in cervical LNs", "setting": "[3]", "value": "not observed"}]}
